Reference: patent publication US4880807A, “Nicotinoylpiperazines useful for treatment of convulsions” (Institut De Recherches Chimiques et Biologiques Appliquees …, priority 1987, dated 1989)
Like-named read-outs stand apart in the source and are kept apart here.

Tests used:
[1] = oral toxicity in mice (LD50, mortality over 14 days); details: mouse, in vivo, po
Experimental: (§1) The toxicity of the products to be studied was investigated by the oral administration, using an esophageal tube, of each of the said products to male mice with a body weight of 18 to 22 g, divided into groups each containing 10 to 20 animals. The mortality was recorded over a 14-day period.

[2] = test system: convulsions induced by supra maximal electroshock (MCE); test: animal or person; details: for ED50: Mus musculus, read-out: ED50 in respect of convulsions induced by MCE, per os, male mice, 30 min after administration, electrical stimulation of the cornea, dose protecting 50% of animals; for ED50 / ED50 in respect of convulsions induced by MCE: 0.5 h
Experimental: (§2) The anticonvulsant properties were investigated on male mice, thirty minutes after the oral administration of the substances to be studied, by the induction of convulsive seizures.
These seizures are caused either by the intraperitoneal injection of pentetrazole (125 mg/kg) or by electrical stimulation of the cornea (supra maximal electroshock, abbreviated to MCE).

male mice [3] = test: in vivo; assay type: in vivo; details: for TD50 (50% neurotoxic dose): per os, male mice, Rota-rod 30 min after administration, dose causing 50% of animals to fall, 30 min
Excerpt: (§3) The animals (divided into groups each containing ten male mice per dose and per product) are installed on the rod and their fall is observed over the next two minutes.

in vivo = assay type: in vivo; details: mouse, po, per os, male mice, Rota-rod 30 min after administration, dose causing 50% of animals to fall, read-out: TD50 (50% neurotoxic dose)
Excerpt: as §3

[4] = test system: convulsions induced by pentetrazole; test: animal or person; details: for ED50: Mus musculus, read-out: ED50 in respect of convulsions induced by PTZ, per os, male mice, 30 min after administration, pentetrazole 125 mg/kg i.p., dose protecting 50% of animals; for ED50 / ED50 in respect of convulsions induced by PTZ: 0.5 h; for therapeutic indices compared with reference products: in words, PTZ and MCE, reference: sodium valproate and trimethadione
Excerpt: as §2

male mice [5] = test: oral toxicity in mice (LD50, mortality over 14 days); details: male mice
Experimental: as §1

[6] = LD50, oral (esophageal tube), male mice, groups of 10 to 20, 14 days, Table II
[7] = LD50, per os, male mice, repeated in Table IV
[8] = LD50 per os/ED50 per os, MCE convulsions
[9] = TD50 per os/ED50 per os, MCE convulsions
[10] = TD50 per os/ED50 per os, PTZ convulsions
[11] = LD50 per os/ED50 per os, PTZ convulsions
[12] = oral (esophageal tube), groups of 10 to 20, 14 days, Table II
[13] = per os, repeated in Table IV, 20160 min

Compound | LD50 at 336 h [1, 6] | Therapeutic index MCE (LD50/ED50) [2, 8] | ED50 ([2]; po) | Therapeutic index PTZ (LD50/ED50) [4, 11] | ED50 ([4]; po) | ED50 in respect of convulsions induced by MCE ([2]; po) | ED50 in respect of convulsions induced by PTZ ([4]; po) | other results
Cl.Cl.O=C(c1cccnc1)N1CCN(c2cccc(C(F)(F)F)c2)CC1 [Ex. 1, 1-nicotinoyl-4-(3-trifluoromethylphenyl)piperazine dihydrochloride] | 575 mg/kg | 30.2 | 19 mg/kg | 33.8 | 17 mg/kg |  |  | LD50 at 336 h [1, 7]: 575 mg/kg; Protection index MCE (TD50/ED50) (male mice [3]; [9]): 8.1; Protection index PTZ (TD50/ED50) (male mice [3]; [10]): 9.1; protection indices compared with reference products (male mice [3]; mouse, in vivo): better than those of the reference products; TD50 at 0.5 h (in vivo; rota-rod): 154 mg/kg; therapeutic indices compared with reference products [4]: better than those of the reference products
O=C(c1cccnc1)N1CCN(c2cccc(Cl)c2)CC1 [Ex. 2, 4-(3-chlorophenyl)-1-nicotinoylpiperazine] | 501 mg/kg |  | 78 mg/kg |  | 50 mg/kg |  |  | 
Cc1cccc(N2CCN(C(=O)c3cccnc3)CC2)c1C [Ex. 3] | > 1000 mg/kg |  | > 200 mg/kg |  | 110 mg/kg |  |  | 
O=C(c1cccnc1)N1CCN(c2ccccc2Cl)CC1 [Ex. 4] | > 1000 mg/kg |  | 200 mg/kg |  | 160 mg/kg |  |  | 
CCOc1ccccc1N1CCN(C(=O)c2cccnc2)CC1 [Ex. 5] | 1000 mg/kg |  | > 200 mg/kg |  | > 200 mg/kg |  |  | 
O=C(c1cccnc1)N1CCN(c2cccc(C(F)(F)F)c2)CC1 [Ex. 6, 1-nicotinoyl-4-(3-trifluoromethylphenyl)piperazine] | 422 mg/kg | 21.1 | 20 mg/kg | 32.5 | 13 mg/kg |  |  | LD50 at 336 h [1, 7]: 422 mg/kg; Protection index MCE (TD50/ED50) (male mice [3]; [9]): 6.0; Protection index PTZ (TD50/ED50) (male mice [3]; [10]): 9.1; protection indices compared with reference products (male mice [3]; mouse, in vivo): better than those of the reference products; TD50 at 0.5 h (in vivo; rota-rod): 119 mg/kg; therapeutic indices compared with reference products [4]: better than those of the reference products
O=C(c1cccnc1)N1CCN(c2ccc(C(F)(F)F)cc2)CC1 [Ex. 7] | > 1000 mg/kg |  | > 200 mg/kg |  | > 200 mg/kg |  |  | 
O=C(c1cccnc1)N1CCN(c2ccccc2F)CC1 [Ex. 8] | 1000 mg/kg | 5.6 | 180 mg/kg | 5.6 | 180 mg/kg |  |  | LD50 at 336 h [1, 7]: 1000 mg/kg; Protection index MCE (TD50/ED50) (male mice [3]; mouse, in vivo, po): 2.8; Protection index PTZ (TD50/ED50) (male mice [3]; mouse, in vivo, po): 2.8; TD50 at 0.5 h (in vivo; rota-rod): 500 mg/kg
O=C(c1cccnc1)N1CCN(c2ccccc2F)CC1 [Ex. 9] |  |  |  |  |  | > 200 mg/kg | > 200 mg/kg | LD50 (male mice [5]; [12]): > 1000 mg/kg
O=C(c1cccnc1)N1CCN(c2ccc(F)cc2)CC1 [Ex. 10, 4-(4-fluorophenyl)-1-nicotinoylpiperazine] | 600 mg/kg |  | 75 mg/kg |  | 62 mg/kg |  |  | 
O=C(c1cccnc1)N1CCN(c2ccc(F)cc2)CC1 [Ex. 11, 4-(4-fluorophenyl)-1-nicotinoylpiperazine] |  |  |  |  |  | 75 mg/kg | 68 mg/kg | LD50 at 336 h [1]: 625 mg/kg
O=C(c1cccnc1)N1CCN(c2ccccc2C(F)(F)F)CC1 [Ex. 12] | > 1000 mg/kg |  | > 200 mg/kg |  | > 200 mg/kg |  |  | 
Cc1ccccc1N1CCN(C(=O)c2cccnc2)CC1 [Ex. 13] |  | 5.0 | 200 mg/kg | 6.2 | 161 mg/kg |  |  | LD50 at 336 h [1]: 1000 mg/kg; Protection index MCE (TD50/ED50) (male mice [3]; [9]): 4.0; Protection index PTZ (TD50/ED50) (male mice [3]; [10]): 4.9; TD50 at 0.5 h (in vivo; in vivo): 800 mg/kg
Cc1ccccc1N1CCN(C(=O)c2cccnc2)CC1 [Ex. 14] | > 1000 mg/kg |  |  |  |  | > 200 mg/kg | 107 mg/kg | LD50 at 336 h [1, 7]: > 1000 mg/kg; Therapeutic index MCE (LD50/ED50) ([2]; mouse, in vivo, po): < 5.0; Protection index MCE (TD50/ED50) (male mice [3]; mouse, in vivo, po): < 3.0; Protection index PTZ (TD50/ED50) (male mice [3]; mouse, in vivo, po): 5.9; TD50 at 0.5 h (in vivo; rota-rod): 635 mg/kg; Therapeutic index PTZ (LD50/ED50) ([4]; mouse, in vivo, po): > 10.0
COc1cccc(N2CCN(C(=O)c3cccnc3)CC2)c1 [Ex. 15] | > 1000 mg/kg |  | > 200 mg/kg |  | 183 mg/kg |  |  | 
COc1ccc(N2CCN(C(=O)c3cccnc3)CC2)cc1 [Ex. 16] | > 1000 mg/kg |  | > 200 mg/kg |  | 120 mg/kg |  |  | 
COc1ccc(N2CCN(C(=O)c3cccnc3)CC2)cc1 [Ex. 17] |  |  |  |  |  | > 200 mg/kg | 200 mg/kg | LD50 (male mice [5]; [12]): > 1000 mg/kg
CCOc1cccc(N2CCN(C(=O)c3cccnc3)CC2)c1 [Ex. 18] | 540 mg/kg | 4.6 | 118 mg/kg | 7.5 | 72 mg/kg |  |  | LD50 at 336 h [1, 7]: 540 mg/kg; Protection index MCE (TD50/ED50) (male mice [3]; mouse, in vivo, po): 2.5; Protection index PTZ (TD50/ED50) (male mice [3]; mouse, in vivo, po): 4.0; TD50 at 0.5 h (in vivo; rota-rod): 291 mg/kg
CCOc1cccc(N2CCN(C(=O)c3cccnc3)CC2)c1 [Ex. 19] |  | 6.7 |  |  |  | 150 mg/kg | 142 mg/kg | Protection index MCE (TD50/ED50) (male mice [3]; mouse, in vivo, po): 1.7; Protection index PTZ (TD50/ED50) (male mice [3]; mouse, in vivo, po): 1.8; TD50 (50% neurotoxic dose) (male mice [3]): 250 mg/kg; Therapeutic index PTZ (LD50/ED50) ([4]; mouse, in vivo, po): 7.0
CC(=O)c1ccc(N2CCN(C(=O)c3cccnc3)CC2)cc1 [Ex. 20] | > 1000 mg/kg |  | > 200 mg/kg |  | > 200 mg/kg |  |  | 
Cc1cc(Cl)ccc1N1CCN(C(=O)c2cccnc2)CC1 [Ex. 22, 4-(4-chloro-2-methylphenyl)-1-nicotinoylpiperazine] | 540 mg/kg | 6.2 |  | 9.8 |  | 87 mg/kg | 55 mg/kg | LD50 at 336 h [1, 7]: 540 mg/kg; Protection index MCE (TD50/ED50) (male mice [3]; [9]): 3.4; Protection index PTZ (TD50/ED50) (male mice [3]; [10]): 5.4; TD50 (50% neurotoxic dose) (male mice [3]): 300 mg/kg
Cc1cc(Cl)ccc1N1CCN(C(=O)c2cccnc2)CC1 [Ex. 23, 4-(4-chloro-2-methylphenyl)-1-nicotinoylpiperazine] |  | < 5.0 |  | > 8.1 |  | > 200 mg/kg | 124 mg/kg | LD50 (male mice [5]; [12]): > 1000 mg/kg; LD50 (male mice [5]; [13]): > 1000 mg/kg; Protection index MCE (TD50/ED50) (male mice [3]; [9]): 4.5; Protection index PTZ (TD50/ED50) (male mice [3]; [10]): 7.4; TD50 (50% neurotoxic dose) (male mice [3]): 650 mg/kg
Cc1ccc(Cl)cc1N1CCN(C(=O)c2cccnc2)CC1 [Ex. 24, 4-(5-chloro-2-methylphenyl)-1-nicotinoylpiperazine] | > 1000 mg/kg | > 12.0 | 83 mg/kg | > 15.9 | 63 mg/kg |  |  | LD50 at 336 h [1, 7]: > 1000 mg/kg; Protection index MCE (TD50/ED50) (male mice [3]; [9]): 6.3; Protection index PTZ (TD50/ED50) (male mice [3]; [10]): 8.3; TD50 at 0.5 h (in vivo; rota-rod): 525 mg/kg
Cc1ccc(Cl)cc1N1CCN(C(=O)c2cccnc2)CC1 [Ex. 25, 4-(5-chloro-2-methylphenyl)-1-nicotinoylpiperazine] |  | > 11.5 |  | > 12.7 |  | 87 mg/kg | 79 mg/kg | LD50 (male mice [5]; [12]): > 1000 mg/kg; LD50 (male mice [5]; [13]): > 1000 mg/kg; Protection index MCE (TD50/ED50) (male mice [3]; [9]): 4.1; Protection index PTZ (TD50/ED50) (male mice [3]; [10]): 4.5; TD50 (50% neurotoxic dose) (male mice [3]): 355 mg/kg
Cc1cccc(Cl)c1N1CCN(C(=O)c2cccnc2)CC1 [Ex. 26] | > 1000 mg/kg |  | > 200 mg/kg |  | > 200 mg/kg |  |  | 
O=C(c1cccnc1)N1CCN(c2ccccc2)CC1 [Ex. 27] | > 1000 mg/kg |  | > 200 mg/kg |  | 156 mg/kg |  |  | 
O=C(c1cccnc1)N1CCN(c2ccccc2)CC1 [Ex. 28] |  |  |  |  |  | > 200 mg/kg | > 200 mg/kg | LD50 (male mice [5]; [12]): > 1000 mg/kg
Cc1cccc(C)c1N1CCN(C(=O)c2cccnc2)CC1 [Ex. 30] | > 1000 mg/kg |  |  |  | 138 mg/kg |  |  | 
CN1C(=O)OC(C)(C)C1=O [TRIM, trimethadione, reference compound] |  | 4.4 | 500 mg/kg | 8.7 | 251 mg/kg |  |  | LD50 at 336 h [1]: 2180 mg/kg; LD50 at 336 h [1, 7]: 2180 mg/kg; Protection index MCE (TD50/ED50) (male mice [3]; mouse, in vivo, po): 2.0; Protection index PTZ (TD50/ED50) (male mice [3]; mouse, in vivo, po): 4.0; TD50 at 0.5 h (in vivo; in vivo): 1000 mg/kg
